Values of other authors as cited in US20230142073A1 (priority 2020, published 2023).
Read-outs that look alike come from different tables or passages of the source.

What was measured:
[1] = tested on: SARS-CoV-2 infected patients presenting with Severe Acute Respiratory Distress Syndrome (SARDS); details: 10 ppm NO inhaled; baseline 102
[2] = tested on: person with a SARS-CoV-2 infection and Severe Acute Respiratory Distress Syndrome (SARDS); details: iv 4 μg/kg/min; for PaO2: baseline 63; for PaO2/FiO2: baseline 70
Sars-Cov-2 ARDS patients = details: iv 2 μg/kg/min; in the following 6 hours; 19 patients; baseline 79; p-value=0.001
[3] = tested on: human patients with a coronavirus (SARS-CoV-2) infection
[4] = tested on: SARS-CoV-2 infected patients, exhibiting Acute Respiratory Distress Syndrome (ARDS); details: iv 10 μg/kg/min, mean maintenance 1.65 μg/kg/min
[5] = 1 hour after almitrine infusion
[6] = 2 hours after almitrine infusion
[7] = 12 hours after almitrine infusion
[8] = 10 patients, iv 4 then 12 μg/kg/min

## [N]=O [NO, Nitric Oxide]
[1]
  median PaO2/FiO2 after NO: 124 mmHg

## C=CCNc1nc(NCC=C)nc(N2CCN(C(c3ccc(F)cc3)c3ccc(F)cc3)CC2)n1.CS(=O)(=O)O [almitrine dimesylate, 6-[4-[bis(4-fluorophenyl)methyl]piperazin-1-yl]-2-N,4-N-bis(prop-2-enyl)-1,3,5-triazine-2,4-diamine methanesulfonic acid]
[2]; [5]
  PaO2: 67 mm Hg
  PaO2/FiO2: 84 mmHg
[2]; [6]
  PaO2: 130 mm Hg
  PaO2/FiO2: 216 mmHg
[2]; [7]
  PaO2: 170 mm Hg
  PaO2/FiO2: 283 mmHg
Sars-Cov-2 ARDS patients
  median PaO2/FiO2 after almitrine: 117 mmHg
[3]; 10 patients, 135 before almitrine, iv 4 then 12 μg/kg/min
  median PaO2/FiO2 ratio after almitrine administration: 215 mmHg
[3]; 10 patients, from 135 before to 215 after almitrine
  increase of median PaO2/FiO2 ratio: 80 mmHg
[3]; [8]
  cardiac index: not affected
  right atrial pressures: not affected
[3]; out of 10 human patients (median age 70), iv 4 μg/kg/min for 30-45 min, then 12 μg/kg/min for 30-45 min, intubated and ventilated
  number of patients with increased PaO2/FiO2: 8
[4]; 32 patients
  lower mortality: 16%
  side-effects: no significant side-effects
[4]; 32 patients, NO inhaled in 75% of cases
  responders (PaO2 increase of more than 20%): 66%
[4]; responders
  mean increase in PaO2: 67%
